Source: ChEMBL document CHEMBL3880393, “2-(Pyridin-2-ylamino)-pyrido[2,3-d]pyrimidin-7-ones” (2003)

Biological target: Fibroblast growth factor receptor (Homo sapiens, UniProt P22607+P11362+P22455+P21802)
Assay: Inhibition of FGFR (unknown origin) using poly (4:1) glutamate-tyrosine substrate and [gamma32P]ATP incubated for 10 mins by beta plate counter based assay
Type: protein assay

IC50: 2980 nM
SMILES: O=c1ccc2cnc(Nc3ccccc3)nc2n1C1CCCC1
